From US20260159536A1, “AKR1C3-ACTIVATED DNA ALKYLATING AGENT, AND MEDICAL APPLICATION THEREOF” (ASCENTAWITS PHARMACEUTICALS, LTD., priority 2021, published 2026)
Where two headings read alike, the source gives them in different places.

Columns and labels:
CAL12T = test: AKR1C3-dependent cytotoxicity, NSCLC cell line CAL12T; format: cell-based; details: Homo sapiens, CAL-12T
Method: (§1) The tested compound was then added. The compound was dissolved in 100% DMSO at 200 times of the desired final test concentration. When the medicament was added, the compound was further diluted to 4 times of the desired final test concentration by using the complete medium. 50 μL of aliquots of the compound with specific concentration were added to the microwells containing 150 μL of medium, and then the final medicament concentration was obtained. […] The medicament was then washed. […] After the incubation was finished, the Alamar Blue was used to analyze and quantify the living cells.

[1] = Liver microsome stability, human; format: in vitro ADME; details: for Percentage remaining after 30 minutes: Human liver microsomes
Method: (§2) 1) Two individual experiments were performed.
(§3) All experiments were performed in duplicate.

H460 cells = test: Inhibition of H460 cancer cell proliferation (CTG, 72 h); format: cell-based; details: Homo sapiens, NCI-H460
Method: If not otherwise specified, IC50 values were measured by the following experimental methods:
c) The cell suspension was added to 96-well plate with 100 μL per well and 2000 cells/well of cell density.
a) Cells were plated for 24 hours, and then the compounds acted singly. 99 μL of growth medium was supplemented per well, and then 1 μL of 200× compound was added, gently shaken to ensure uniform mixing, and then placed in a 37° C., 5% CO2 incubator.
b) The cell plate was placed in the incubator for 72 hours.
b) 100 μL of CTG reagent (CelltiterGlo kit) was added to each well, the plate was placed in a rapid oscillator and shaken for 2 minutes, and then placed at room temperature for 30 minutes away from light.
c) The chemiluminescence signal value was read with Envision instrument.
The IC50 was calculated using GraphPad Prism 8 software and the IC50 (half inhibitory concentration) of the compounds was obtained using the following non-linear fitting formula: […]

P-gp = target: T1, P-gp (Homo sapiens, UniProt P08183); test: P-gp substrate evaluation, MDCKII-MDR1 penetration test with or without Verapamil; format: in vitro ADME
T1 construct: expressed in transfected cells; host or cells: MDCKII-MDR1 cells
Method: The conditions of the incubator were set as 37° C., 5% CO2, and 95% of the relative humidity.
After that, the MDCKII-MDR1 cells can be used for the penetration test.
(1) MDCKII-MDR1 transwell culture plate was taken out from the incubator.
(6) The upper and lower transportations were pooled and then incubated at 37° C. for 2 h.
After the sample tubes were vortexed for 10 min, and centrifuged at 3220 g for 30 min. […] Each sample was adopted to the three parallel incubation.
Efflux Ratio was calculated by the following formula: […]
Recovery was calculated by the following formula: […]

[2] = Liver microsome stability, mouse; format: in vitro ADME; details: for Percentage remaining after 30 minutes: Mouse liver microsomes
Method: as §2, §3

NCI-H1944 = test: AKR1C3-dependent cytotoxicity, NSCLC cell line NCI-H1944; format: cell-based; details: Homo sapiens
Method: as §1

[3] = tested on: HuPrime model LI6664 human liver cancer; test: In vivo pharmacodynamics, liver cancer LI6664 PDX model; set-up: species or system BALB/c nude mice; details: for relative tumor inhibition rate TGI (%): QWx3; for Relative tumor volume (x ± S) / Tumor volume (x ± S): mean ± standard error; for Tumor volume (x ± S): in mm³ (unit assumed)
Method: Experiment Instruction: BALB/c nude mice were subcutaneously inoculated with HuPrime® model LI6664 tumor blocks to establish a subcutaneous transplantation tumor model of human liver cancer. […] Among them, 7.5% anhydrous ethanol+7.5% polyoxyethylene (35) castor oil+85% glucose injection D5W (pH 7.4) vehicle control group was administered by tail vein once a week for 3 consecutive weeks; test drug AST-3424 0.3 mg/kg and 1 mg/kg groups were administered by tail vein injection once a day for 5 consecutive days, followed by 2 days off, followed by 2 weeks off, and then continuously administered for 5 consecutive days; the test drug AST-3424 1.25 mg/kg group was administered by tail vein injection once a week for 2 consecutive weeks, followed by one week off, and then continuously administered for 2 consecutive weeks, Compound A 0.5 mg/kg, 1.5 mg/kg, and 4.5 mg/kg groups were administered by tail vein injection once a week for three consecutive weeks, followed by 1 week off, and then administered for three consecutive weeks. […] The efficacy was evaluated according to the relative tumor inhibition rate TGI (%), and the safety was evaluated according to the change in body weight and the death of the animals.

T1 sequence (P08183 whole entry): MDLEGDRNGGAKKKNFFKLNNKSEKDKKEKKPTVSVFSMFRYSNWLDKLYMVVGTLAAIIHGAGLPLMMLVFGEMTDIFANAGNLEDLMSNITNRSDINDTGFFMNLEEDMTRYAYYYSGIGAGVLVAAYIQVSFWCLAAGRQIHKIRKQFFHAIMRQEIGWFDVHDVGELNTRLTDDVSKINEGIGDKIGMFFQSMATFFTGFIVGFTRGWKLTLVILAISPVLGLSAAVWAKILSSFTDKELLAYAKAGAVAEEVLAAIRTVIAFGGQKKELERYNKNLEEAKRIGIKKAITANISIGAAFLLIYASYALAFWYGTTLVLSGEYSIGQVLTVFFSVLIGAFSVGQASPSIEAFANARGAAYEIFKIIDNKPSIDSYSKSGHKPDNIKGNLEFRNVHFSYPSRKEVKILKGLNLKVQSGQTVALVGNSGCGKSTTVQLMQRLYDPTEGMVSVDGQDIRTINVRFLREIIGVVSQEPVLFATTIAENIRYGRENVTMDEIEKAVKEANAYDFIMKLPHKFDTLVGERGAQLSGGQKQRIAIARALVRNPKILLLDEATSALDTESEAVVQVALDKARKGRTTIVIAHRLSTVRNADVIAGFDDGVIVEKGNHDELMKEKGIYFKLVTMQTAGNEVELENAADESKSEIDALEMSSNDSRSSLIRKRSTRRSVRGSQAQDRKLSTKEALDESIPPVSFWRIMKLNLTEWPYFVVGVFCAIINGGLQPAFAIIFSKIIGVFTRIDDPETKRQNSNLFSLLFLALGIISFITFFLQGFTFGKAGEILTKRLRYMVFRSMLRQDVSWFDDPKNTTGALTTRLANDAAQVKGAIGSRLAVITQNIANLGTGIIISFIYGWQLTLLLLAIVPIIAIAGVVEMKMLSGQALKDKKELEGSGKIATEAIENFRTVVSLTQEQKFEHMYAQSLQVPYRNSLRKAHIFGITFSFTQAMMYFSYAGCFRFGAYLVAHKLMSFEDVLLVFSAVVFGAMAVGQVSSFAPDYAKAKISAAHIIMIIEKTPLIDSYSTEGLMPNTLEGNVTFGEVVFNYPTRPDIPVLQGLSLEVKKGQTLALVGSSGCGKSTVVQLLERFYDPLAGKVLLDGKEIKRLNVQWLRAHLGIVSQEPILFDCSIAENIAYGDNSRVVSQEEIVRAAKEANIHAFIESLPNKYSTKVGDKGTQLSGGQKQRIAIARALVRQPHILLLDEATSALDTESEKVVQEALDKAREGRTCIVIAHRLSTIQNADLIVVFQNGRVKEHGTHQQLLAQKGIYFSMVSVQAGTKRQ

For `O=[N+]([O-])c1ccc(C(OP(=O)(N2CC2)N2CC2)C(F)(F)F)cc1Oc1ccc(-c2ccc(F)cc2)c(F)c1` (racemic) [Compound A], the IC50 (CAL12T) was 8.08 µM, the “Percentage remaining after 30 minutes” value ([1]; with the addition of NADPH) was 115.25% and the “Percentage remaining after 30 minutes” value ([1]; without the addition of NADPH) was 111.93%. For the same molecule, the “stability in liver microsomes” value ([1]; human) was “relatively stable”, the IC50 (H460 cells) was 6.87 nM and the P-gp substrate (P-gp; MDCKII-MDR1, with and without Verapamil) was “not substrates for Pgp”. It also gave a Papp A→B at 2 h (P-gp; dog, MDCK-MDR1) of 0.18 ×10⁻⁶ cm/s, a Papp B→A at 2 h (P-gp; dog, MDCK-MDR1) of 0.24 ×10⁻⁶ cm/s and a recovery at 2 h (P-gp; dog, MDCK-MDR1, Verapamil 0 μM, read-out: Recovery (%) AP-BL) of 5.03%. For the same molecule, the recovery at 2 h (P-gp; dog, MDCK-MDR1, Verapamil 0 μM, read-out: Recovery (%) BL-AP) was 4.34%, the recovery at 2 h (P-gp; dog, MDCK-MDR1, with Verapamil 100 μM, Verapamil 100 μM, read-out: Recovery (%) AP-BL) was 5.7% and the recovery at 2 h (P-gp; dog, MDCK-MDR1, with Verapamil 100 μM, Verapamil 100 μM, read-out: Recovery (%) BL-AP) was 12.6%. For the same molecule, the “Percentage remaining after 30 minutes” value ([2]; with the addition of NADPH) was 98.59%, the “Percentage remaining after 30 minutes” value ([2]; without the addition of NADPH) was 104.30% and the “stability in liver microsomes” value ([2]; mouse) was “relatively stable”. For the same molecule, the IC50 (NCI-H1944) was 71.3 nM, the “relative tumor inhibition rate TGI (%)” value ([3]; 0.5 mg/kg i.v. QWx3, 1 week off, Day 28) was 34.07% and the “relative tumor inhibition rate TGI (%)” value ([3]; 1.5 mg/kg i.v. QWx3, 1 week off, Day 28) was 66.57%. The “relative tumor inhibition rate TGI (%)” value ([3]; 4.5 mg/kg i.v. QWx3, 1 week off, Day 28) was 77.05%, the “T/C (%)” value ([3]; Compound A 0.5 mg/kg, Day 28) was 65.93% and the “Relative tumor volume (x ± S)” value ([3]; Compound A 0.5 mg/kg, Day 28) was 8.51 ± 2.07. The “Tumor volume (x ± S)” value ([3]; Compound A 0.5 mg/kg, Day 28) was 920.46 ± 215.96, the “T/C (%)” value ([3]; Compound A 1.5 mg/kg, Day 28) was 33.43% and the “Relative tumor volume (x ± S)” value ([3]; Compound A 1.5 mg/kg, Day 28) was 4.31 ± 0.54. For the same molecule, the “Tumor volume (x ± S)” value ([3]; Compound A 1.5 mg/kg, Day 28) was 466.31 ± 77.63, the “T/C (%)” value ([3]; Compound A 4.5 mg/kg, Day 28) was 22.95% and the “Relative tumor volume (x ± S)” value ([3]; Compound A 4.5 mg/kg, Day 28) was 2.96 ± 0.27. The “Tumor volume (x ± S)” value ([3]; Compound A 4.5 mg/kg, Day 28) was 320.72 ± 40.03, the “Size of tumor volume” value ([3]; Group6, Compound A 0.5 mg/kg, Day 0) was 108.44 mm^3 and the “Size of tumor volume” value ([3]; Group6, Compound A 0.5 mg/kg, Day 4) was 201.76 mm^3. The “Size of tumor volume” value ([3]; Group6, Compound A 0.5 mg/kg, Day 7) was 277.38 mm^3, the “Size of tumor volume” value ([3]; Group6, Compound A 0.5 mg/kg, Day 11) was 301.39 mm^3 and the “Size of tumor volume” value ([3]; Group6, Compound A 0.5 mg/kg, Day 14) was 347.30 mm^3. The “Size of tumor volume” value ([3]; Group6, Compound A 0.5 mg/kg, Day 18) was 434.18 mm^3, the “Size of tumor volume” value ([3]; Group6, Compound A 0.5 mg/kg, Day 21) was 518.23 mm^3 and the “Size of tumor volume” value ([3]; Group6, Compound A 0.5 mg/kg, Day 25) was 746.19 mm^3. For the same molecule, the “Size of tumor volume” value ([3]; Group6, Compound A 0.5 mg/kg, Day 28) was 920.46 mm^3, the “Size of tumor volume” value ([3]; Group6, Compound A 0.5 mg/kg, Day 32) was 1036.44 mm^3 and the “Size of tumor volume” value ([3]; Group6, Compound A 0.5 mg/kg, Day 35) was 1258.05 mm^3. The “Size of tumor volume” value ([3]; Group6, Compound A 0.5 mg/kg, Day 39) was 1426.66 mm^3, the “Size of tumor volume” value ([3]; Group6, Compound A 0.5 mg/kg, Day 42) was 1661.81 mm^3 and the “Size of tumor volume” value ([3]; Group6, Compound A 0.5 mg/kg, Day 46) was 2037.97 mm^3. For the same molecule, the “Size of tumor volume” value ([3]; Group6, Compound A 0.5 mg/kg, Day 49) was 1746.71 mm^3, the “Size of tumor volume” value ([3]; Group7, Compound A 1.5 mg/kg, Day 0) was 108.25 mm^3 and the “Size of tumor volume” value ([3]; Group7, Compound A 1.5 mg/kg, Day 4) was 127.56 mm^3. For the same molecule, the “Size of tumor volume” value ([3]; Group7, Compound A 1.5 mg/kg, Day 7) was 152.00 mm^3, the “Size of tumor volume” value ([3]; Group7, Compound A 1.5 mg/kg, Day 11) was 161.35 mm^3 and the “Size of tumor volume” value ([3]; Group7, Compound A 1.5 mg/kg, Day 14) was 206.44 mm^3. The “Size of tumor volume” value ([3]; Group7, Compound A 1.5 mg/kg, Day 18) was 225.71 mm^3, the “Size of tumor volume” value ([3]; Group7, Compound A 1.5 mg/kg, Day 21) was 287.02 mm^3 and the “Size of tumor volume” value ([3]; Group7, Compound A 1.5 mg/kg, Day 25) was 398.93 mm^3. For the same molecule, the “Size of tumor volume” value ([3]; Group7, Compound A 1.5 mg/kg, Day 28) was 466.31 mm^3, the “Size of tumor volume” value ([3]; Group7, Compound A 1.5 mg/kg, Day 32) was 543.94 mm^3 and the “Size of tumor volume” value ([3]; Group7, Compound A 1.5 mg/kg, Day 35) was 643.84 mm^3. For the same molecule, the “Size of tumor volume” value ([3]; Group7, Compound A 1.5 mg/kg, Day 39) was 805.84 mm^3, the “Size of tumor volume” value ([3]; Group7, Compound A 1.5 mg/kg, Day 42) was 1060.20 mm^3 and the “Size of tumor volume” value ([3]; Group7, Compound A 1.5 mg/kg, Day 46) was 1179.82 mm^3. For the same molecule, the “Size of tumor volume” value ([3]; Group7, Compound A 1.5 mg/kg, Day 49) was 1407.10 mm^3, the “Size of tumor volume” value ([3]; Group8, Compound A 4.5 mg/kg, Day 0) was 108.26 mm^3 and the “Size of tumor volume” value ([3]; Group8, Compound A 4.5 mg/kg, Day 4) was 125.30 mm^3. For the same molecule, the “Size of tumor volume” value ([3]; Group8, Compound A 4.5 mg/kg, Day 7) was 142.58 mm^3, the “Size of tumor volume” value ([3]; Group8, Compound A 4.5 mg/kg, Day 11) was 150.82 mm^3 and the “Size of tumor volume” value ([3]; Group8, Compound A 4.5 mg/kg, Day 14) was 176.69 mm^3. For the same molecule, the “Size of tumor volume” value ([3]; Group8, Compound A 4.5 mg/kg, Day 18) was 180.29 mm^3, the “Size of tumor volume” value ([3]; Group8, Compound A 4.5 mg/kg, Day 21) was 201.42 mm^3 and the “Size of tumor volume” value ([3]; Group8, Compound A 4.5 mg/kg, Day 25) was 282.76 mm^3. The “Size of tumor volume” value ([3]; Group8, Compound A 4.5 mg/kg, Day 28) was 320.72 mm^3, the “Size of tumor volume” value ([3]; Group8, Compound A 4.5 mg/kg, Day 32) was 339.73 mm^3 and the “Size of tumor volume” value ([3]; Group8, Compound A 4.5 mg/kg, Day 35) was 360.45 mm^3. The “Size of tumor volume” value ([3]; Group8, Compound A 4.5 mg/kg, Day 39) was 391.38 mm^3, the “Size of tumor volume” value ([3]; Group8, Compound A 4.5 mg/kg, Day 42) was 417.79 mm^3 and the “Size of tumor volume” value ([3]; Group8, Compound A 4.5 mg/kg, Day 46) was 451.01 mm^3. For the same molecule, the “Size of tumor volume” value ([3]; Group8, Compound A 4.5 mg/kg, Day 49) was 538.20 mm^3 and the weight loss ([3]; treatment period, tested doses) was “no weight loss”.
